Reference: patent US11053205B2, “Phenazine derivatives as antimicrobial agents” (University of Florida Research Foundation, Incorporated, priority 2017, dated 2021)
Values after ≈ are worked out from the molar mass of the structure shown. Like-named read-outs stand apart in the source and are kept apart here. Marks after values point to notes of the source that are not given here.

Experiments:
[1] = tested on: M. tuberculosis H37Ra (ATCC 25177); experiment: MIC assay for Mycobacterium tuberculosis; type: cell-based; conditions: Mycobacterium tuberculosis, 168 h; seven days at 37° C.; read-out: MtB H37Ra MIC
Experimental: The culture was then diluted with fresh medium until an OD600 of 0.01 was reached. […] The final DMSO concentration was maintained at 0.5%. […] Three rows were reserved for each compound. […] OD600 absorbance was recorded using SPECTRAMAX M5 (Molecular Devices). Data obtained from three independent experiments were analyzed using Excel.
The culture was then diluted with fresh medium until an OD600 of 0.01 was reached. […] The final DMSO concentration was maintained at 0.5%. […] Three rows were reserved for each compound. […] OD600 absorbance was recorded using SpectraMax M5 (Molecular Devices). Data obtained from three independent experiments were analyzed using Excel.

[2] = LDH release assay for HeLa cytotoxicity; conditions: human, HeLa cells
HeLa cells [3] = experiment: LDH release assay for HeLa cytotoxicity
human red blood cells [4] = conditions: human, 1 h, 200 μM, pH 7.2
UV-Vis metal(II) binding = type: physicochemical; conditions: kinetics of UV-Vis experiments
Experimental: Spectral scanning was performed from 200 to 800 nm in 2 nm increments.

MRSA BAA-1707 [5] = experiment: Metal(II)-cation co-treatment MIC assay; type: cell-based; conditions: Staphylococcus aureus; copper(II) at 200 μM; read-out: MIC w/ Cu2+
MRSA BAA-1707 biofilms = experiment: Calgary Biofilm Device (CBD) assay, MBC/MBEC; conditions: for MRSA BAA-1707 MBEC: biofilm eradication
MRSA BAA-1707 [6] = experiment: MIC, broth microdilution (CLSI); conditions: 16 to 18 hours at 37° C.; 0.10 = lowest concentration tested
VRE 700221 = experiment: MIC, broth microdilution (CLSI); conditions: for VRE 700221 MIC: 16 to 18 hours at 37° C.; for MIC: Enterococcus, VRE
MRSE 35984 = experiment: MIC, broth microdilution (CLSI); conditions: 16 to 18 hours at 37° C.
HeLa cells [7] = tested on: HeLa cells
MRSE 35984 biofilms [8] = experiment: Live/Dead staining of biofilms; type: cell-based, Staphylococcus epidermidis; conditions: 0.1, 5, and 10 μM, 24 hours
Experimental: (§1) A mid-log culture of MRSE 35894 was diluted 1:1,000-fold and 500 μL was transferred to each compartment of a 4 compartment CELLview dish (Greiner Bio-One 627871). The dish was then incubated for 24 hours at 37° C. After this time, the cultures were removed and the plate was washed with 0.9% saline. The dish was then treated with the compounds in fresh media at various concentrations. DMSO was used as the negative control in this assay. The dish was incubated with the compound for 24 hours at 37° C. After this time, the cultures were removed and the dish was washed with 0.9% saline for 2 minutes. Saline was then removed and 500 μL of the stain (Live/Dead BacLight Viability Kit, Invitrogen) were added for 15 minutes and left in the dark. After this time, the stain was removed and the dish was washed twice with 0.9% saline. Then the dish was fixed with 500 μL 4% paraformaldehyde in PBS for 30 minutes. Images of remaining MRSE biofilms were then taken with a fluorescence microscope. All data were analyzed using Image J software from three independent experiments.
Following biofilm eradication investigations in CBD assays, lead HP 61A was tested against biofilms of MRSE 35984 in live/dead staining experiments (FIG. 30B). After a 24-hour biofilm establishment, HP 61A was added at 0.1, 5, and 10 μM then left to incubate against MRSE 35984 biofilms for an additional 24 hours at 37° C.

S. epi 12228 = experiment: MIC, broth microdilution (CLSI); conditions: Staphylococcus epidermidis, 12228, read-out: S. epi 12228 MIC
VRE 700221 biofilms = experiment: Calgary Biofilm Device (CBD) assay, MBC/MBEC; conditions: for VRE 700221 MBEC: biofilm eradication
MRSA-1707 biofilms [9] = experiment: CBD pulse experiments (two sequential 24 hour treatments); type: cell-based, Staphylococcus aureus; conditions: two sequential 24 hour compound treatments
MRSE 35984 biofilms [10] = experiment: Calgary Biofilm Device (CBD) assay, MBC/MBEC; conditions: Staphylococcus epidermidis, MRSE, read-out: MRSE 35984 MBC
human red blood cells [11] = experiment: Hemolysis assay with red blood cells; conditions: 1 hour at 37° C.
MRSA BAA-44 biofilms = experiment: Calgary Biofilm Device (CBD) assay, MBC/MBEC; conditions: biofilm eradication
MRSA-2 biofilms = experiment: Calgary Biofilm Device (CBD) assay, MBC/MBEC
[12] = tested on: MRSA, MRSE and VRE biofilms; experiment: CBD assays against MRSA, MRSE, and VRE biofilms (all strains); conditions: strains not given
MRSA BAA-1707 [13] = experiment: Macromolecular synthesis inhibition assay; type: cell-based, Staphylococcus aureus
Experimental: Macromolecular synthesis experiments were carried out in methicillin-resistant Staphylococcus aureus BAA-1707. An overnight culture (100 μL) of S. aureus BAA-1707 was sub-cultured into 10 mL of fresh TSBG media, which was allowed to grow to exponential phase (OD600=0.2−0.3) before transferring 500 μL to each well in a 24 well-plate. The test compounds and vehicle control (DMSO) were added to achieve the desired concentrations relative to their MIC values against S. aureus BAA-1707. Treated cultures were then incubated at 37° C. for 30 minutes before radioactive precursors for DNA ([^3H] thymidine (0.5 μCi)), RNA ([^3H] uridine (0.5 μCi)) and protein ([^3H] leucine (1 μCi)) were added. […] DMSO served as the negative control. DNA and RNA radiolabeled cultures were then incubated in 37° C. for 15 minutes before being stopped by adding 60 μL of cold 5% trichloroacetic acid (TCA). The protein synthesis experiment was stopped after 40 minutes by adding 60 μL cold TCA. These mixtures were then incubated at 2° C. for at least 30 minutes before the contents of the plates were transferred onto glass microfiber filters (24 mm) and washed 5 times with 1 mL of 5% TCA. The filters are allowed to dry overnight before 3.5 mL of the scintillation fluid was added to the scintillation vials containing the filters and the radiation counts were measured using liquid scintillation LS 6500.
For these experiments, MRSA-1707 cultures were treated with [^3H]-thymidine (DNA biosynthesis), [^3H]-uridine (RNA biosynthesis) and [^3H]-leucine (protein biosynthesis) in the presence of HP 1 and antibiotic controls (4-16×MIC).

MRSA-1 = experiment: MIC, broth microdilution (CLSI); conditions: Staphylococcus aureus, MRSA, read-out: MRSA-1 MIC
MRSA-1707 biofilms [14] = experiment: Live/Dead staining of biofilms; type: cell-based, Staphylococcus aureus; conditions: 0.1, 1 and 5 μM, 24 hours
Experimental: as §1, with “To support the CBD assay findings, LIVE/DEAD experiments were performed with potent Compound 27 (FIG. 7). A mid-log” for “A mid-log”, “culture of MRSA-2 was diluted” for “culture of MRSE 35894 was diluted”, “4 compartment […] dish (Greiner” for “4 compartment CELLview dish (Greiner”, “stain was removed, and the” for “stain was removed and the”, “of remaining MRSA-2 biofilms were” for “of remaining MRSE biofilms were”, “Image J software.” for “Image J software from three independent experiments.”
HP 1-17 was tested against MRSA-1707 biofilms in live/dead staining experiments. […] After this time, images of the treated and untreated MRSA-1707 biofilms were obtained using fluorescence microscopy (FIG. 20).

With `Oc1c(Br)cc(Br)c2nc3c(Br)cccc3nc12` [HP 1-23] the MIC [1] was 25 µM (≈ 10.8 µg/mL), the IC50 at 24 h [2] was > 100 µM and the “selectivity index (HeLa IC50 to MRSA BAA-1707 MIC)” value (HeLa cells [3]) was > 2,000 fold. For the same molecule, the “Hemolysis at 200 μM” value (human red blood cells [4]) was 5.1%.
`Cc1ccc2nc3c(Br)cc(Br)c(O)c3nc2c1` [HP 1-20] showed a melting point of 213 to 215 °C.
With `Oc1c(Br)cc(Br)c2nc3c(Cl)cccc3nc12` [HP 1-21] the MIC [1] was 50 µM (≈ 19.4 µg/mL), the “rate of copper(II) chelation” value (UV-Vis metal(II) binding) was “faster rate than HP 1” and the “Hemolysis at 200 μM” value (human red blood cells [4]) was ≤1%. The MIC (MRSA BAA-1707 [5]) was 6.25 µM.
With `Oc1c(Br)cc(Br)c2nc3cc(Cl)ccc3nc12` [61A] the “MRSA BAA-1707 MBEC” value (MRSA BAA-1707 biofilms; CBD) was 4.69 µM, the “MRSA BAA-1707 MIC” value (MRSA BAA-1707 [6]) was 0.038 µM and the “VRE 700221 MIC” value (VRE 700221) was 0.39 µM. The “MRSE 35984 MIC” value (MRSE 35984) was 0.1 µM, the IC50 (HeLa cells [7]) was > 100 µM and the “biofilm eradication and clearance (live/dead staining)” value (MRSE 35984 biofilms [8]) was “highly potent eradication and clearance of MRSE 35984 biofilms”.
In the case of `COCCOCCOCCOCCOC(=O)Oc1c(Br)cc(Br)c2nc3c(C)cccc3nc12` [HP 1-25], the MIC [1] is reported as 12.5 µM (≈ 7.53 µg/mL), the MIC (S. epi 12228) is reported as 0.1 µM (≈ 0.0602 µg/mL) and the “HeLa cell cytotoxicity at 100 μM” value (HeLa cells [7]) is reported as “no HeLa cell cytotoxicity”. The “Hemolysis at 200 μM” value (human red blood cells [4]) was ≤1%.
In the case of `CCCCCCCCCCCCCCCC[N+](C)(C)Cc1ccccc1.[Cl-]` [BAC-16, reference compound], the “VRE 700221 MBEC” value (VRE 700221 biofilms; CBD) is reported as 3.0 µM, the “VRE 700221 MBC” value (VRE 700221 biofilms; CBD, planktonic killing) is reported as 5.9 µM and the “MRSA BAA-1707 MBEC” value (MRSA BAA-1707 biofilms; CBD) is reported as 15.6 µM. The “MRSA BAA-1707 MBC” value (MRSA BAA-1707 biofilms; CBD, planktonic killing) was 31.3 µM, the “MRSA BAA-1707 MIC” value (MRSA BAA-1707 [6]) was 1.56 µM and the “VRE 700221 MIC” value (VRE 700221) was 3.13 µM. For the same molecule, the “MBEC (pulse treatment)” value (MRSA-1707 biofilms [9]) was 25 µM and the “MRSE 35984 MIC” value (MRSE 35984) was 1.56 µM.
With `CN[C@H](CC(C)C)C(=O)N[C@H]1C(=O)N[C@@H](CC(N)=O)C(=O)N[C@H]2C(=O)N[C@H]3C(=O)N[C@H](C(=O)N[C@H](C(=O)O)c4cc(O)cc(O)c4-c4cc3ccc4O)[C@H](O)c3ccc(c(Cl)c3)Oc3cc2cc(c3O[C@@H]2O[C@H](CO)[C@@H](O)[C@H](O)[C@H]2O[C@H]2C[C@](C)(N)[C@H](O)[C@H](C)O2)Oc2ccc(cc2Cl)[C@H]1O` [vancomycin, reference compound] the MBC (MRSE 35984 biofilms [10]) was 3 µM (≈ 4.35 µg/mL), the “Hemolysis at 200 μM” value (human red blood cells [11]) was ≤1% and the “VRE 700221 MBEC” value (VRE 700221 biofilms; CBD) was 150 µM. For the same molecule, the MBC (VRE 700221 biofilms; Enterococcus, VRE, read-out: VRE 700221 MBC) was > 200 µM, the MIC (S. epi 12228) was 1.17 µM (≈ 1.7 µg/mL) and the MBC (MRSA BAA-1707 biofilms; Staphylococcus aureus, read-out: MRSA BAA-1707 MBC) was 3.9 µM (≈ 5.65 µg/mL). The “biofilm eradication activities against MRSA biofilms” value (MRSA BAA-1707 biofilms; at 2,000 μM (highest concentration tested)) was “no biofilm eradication activities”, the MIC (VRE 700221; read-out: VRE 700221 MIC) was > 100 µM and the “MRSA BAA-44 MBEC” value (MRSA BAA-44 biofilms) was > 2000 µM. For the same molecule, the “MRSA-2 MBEC” value (MRSA-2 biofilms; CBD, biofilm eradication) was > 2000 µM and the MBC (MRSA-2 biofilms; Staphylococcus aureus, MRSA, read-out: MRSA-2 MBC) was 3 µM (≈ 4.35 µg/mL).
In the case of `CCc1cccc2nc3c(O)c(Br)cc(Br)c3nc12` [HP 1-18], the MIC [1] is reported as 25 µM (≈ 9.55 µg/mL), the “MRSA BAA-1707 MIC” value (MRSA BAA-1707 [6]) is reported as 0.10^c μM and the MIC (VRE 700221; read-out: VRE 700221 MIC, 16 to 18 hours at 37° C.) is reported as 0.15 to 1.56 µM (≈ 0.0573 to 0.596 µg/mL). The MBEC [12] was 0.59 to 2.35 µM, the “MRSE 35984 MIC” value (MRSE 35984) was 0.10^c μM and the “Hemolysis at 200 μM” value (human red blood cells [4]) was 1.7%.
With `Oc1c(Br)cc(Br)c2nc3ccccc3nc12` [HP 1, 2,4-dibromophenazin-1-ol] the MIC [1] was 25 µM (≈ 8.85 µg/mL), the IC50 at 24 h [2] was 100 µM and the “RNA biosynthesis inhibition ([3H]-uridine)” value (MRSA BAA-1707 [13]; at 4×MIC) was “inhibits both RNA and protein biosynthesis”. The “protein biosynthesis inhibition ([3H]-leucine)” value (MRSA BAA-1707 [13]; at 4×MIC) was “inhibits both RNA and protein biosynthesis”, the “DNA biosynthesis inhibition ([3H]-thymidine)” value (MRSA BAA-1707 [13]; at 8×MIC) was “does not inhibit DNA biosynthesis” and the “Hemolysis at 200 μM” value (human red blood cells [4]) was ≤1%.
For `Cc1cccc2nc3c(O)c(Br)cc(Br)c3nc12` [HP 1-17], the MIC [1] was 25 µM (≈ 9.2 µg/mL), the MIC (MRSA-1) was 0.1 µM (≈ 0.0368 µg/mL) and the “rate of copper(II) chelation” value (UV-Vis metal(II) binding) was “faster rate than HP 1”. The “biofilm eradication and clearance (live/dead staining)” value (MRSA-1707 biofilms [14]) was “potent biofilm eradication and clearance response” and the “Hemolysis at 200 μM” value (human red blood cells [4]) was 6.7%.
